Consider 5 molecules from publication PMC10809370, “Dye-Decolorizing Peroxidase of Streptomyces coelicolor (ScDyPB) Exists as a Dynamic Mixture of Kinetically Different Oligomers” (ACS Omega, 2024).

The target of series [1] is T1, Dye-decolorizing peroxidase ScDyPB (Streptomyces coelicolor, UniProt Q9FBY9).
T1 construct: gene SCO7193
T1 sequence (Q9FBY9 1-316): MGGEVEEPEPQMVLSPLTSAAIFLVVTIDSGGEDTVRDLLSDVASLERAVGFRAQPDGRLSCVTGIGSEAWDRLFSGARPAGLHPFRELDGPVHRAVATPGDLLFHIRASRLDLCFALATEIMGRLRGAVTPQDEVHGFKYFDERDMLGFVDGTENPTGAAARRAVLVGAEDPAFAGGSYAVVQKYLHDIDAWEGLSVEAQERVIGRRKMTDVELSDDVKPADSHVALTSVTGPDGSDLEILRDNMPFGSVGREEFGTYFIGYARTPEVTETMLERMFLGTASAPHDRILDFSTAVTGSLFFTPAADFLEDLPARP
Briefly: initial rates of MHQ oxidation to methylquinone at […] nm, purified enzyme. The format is biochemical.

Series [2] concerns the target T1, Dye-decolorizing peroxidase ScDyPB. Briefly: dye oxidation rate at […] nm, […] dye, […] H2O2. It is filed as biochemical.
For series [3] the target is unchanged. The series is described as follows: dye oxidation rate at […] nm, […] dye, […] H2O2. The format is biochemical. This is another data set of the same source.
Series [4] has the same target. Briefly: biochemical.
Series [5] concerns the molecule itself. The series is described as follows: SEC; Superdex 75 Increase 10/300 GL, 20 mM Tris-HCl, 0.1 M NaCl, pH 7.5; 100 uL of 18.1 uM ScDyPB injected; calibrated with standard proteins; apparent molecular weights. On the technique in general: In gel filtration, larger molecules generally elute earlier.
Substrate in series [6]: OO
The series is described as follows: purified protein. The note with it: heme heme in its resting state.

For the molecule `Cc1cc(O)ccc1O` [MHQ, methylhydroquinone], the “initial rates of MHQ oxidation to methylquinone at 251 nm, purified enzyme” value in series [1] was “the rate of the oxidation of both ABTS and MHQ scaled linearly with the concentration of the ScDyPB in the cuvette”.

Regarding `Nc1c(S(=O)(=O)O)cc(Nc2cccc(S(=O)(=O)CCOS(=O)(=O)O)c2)c2c1C(=O)c1ccccc1C2=O` [RB19, reactive blue 19], in series [2], the “dye oxidation rate at 595 nm, 0.1 mM dye, 1.0 mM H2O2” value worked out at 0.58 ± 0.02 s^–1.

Consider `Nc1c(S(=O)(=O)O)cc(Nc2ccc(S(=O)(=O)O)c(Nc3nc(Cl)nc(Cl)n3)c2)c2c1C(=O)c1ccccc1C2=O` [RB4, reactive blue 4], for which, in series [3], the “dye oxidation rate at 610 nm, 0.1 mM dye, 1.0 mM H2O2” value is listed as 0.66 ± 0.04 s^–1.

Consider `CCn1c(=NN=c2sc3cc(S(=O)(=O)O)ccc3n2CC)sc2cc(S(=O)(=O)O)ccc21` [ABTS, 2,2′-azino-di(3-ethyl-benzothiazoline-6-sulfonic acid)], for which the Ki in series [4] turned out to be 4.12 ± 0.36 µM.

B1: Dye-decolorizing peroxidase from S. coelicolor A3(2) (ScDyPB) (enzyme, Streptomyces coelicolor A3(2))
chain: MGGEVEEPEPQMVLSPLTSAAIFLVVTIDSGGEDTVRDLLSDVASLERAVGFRAQPDGRLSCVTGIGSEAWDRLFSGARPAGLHPFRELDGPVHRAVATPGDLLFHIRASRLDLCFALATEIMGRLRGAVTPQDEVHGFKYFDERDMLGFVDGTENPTGAAARRAVLVGAEDPAFAGGSYAVVQKYLHDIDAWEGLSVEAQERVIGRRKMTDVELSDDVKPADSHVALTSVTGPDGSDLEILRDNMPFGSVGREEFGTYFIGYARTPEVTETMLERMFLGTASAPHDRILDFSTAVTGSLFFTPAADFLEDLPARP
notes: Dye-decolorizing peroxidase ScDyPB, Streptomyces coelicolor A3(2), UniProtKB Q9FBY9; molecular weight printed as 34 kDa; Heme protein, reconstituted with hemin; also called type B dye-decolorizing peroxidase of Streptomyces coelicolor; subfamily B DyP; source: E. coli BL21 (DE3), purified, reconstituted with hemin
For B1, the “stoichiometry N” value in series [5] turned out to be 3. The Km in series [6] came out at 890 ± 60 µM.

A word on the Ki: it is the dissociation constant of the complex between target and ligand, obtained from inhibition or displacement. Low readings indicate higher affinity, high ones lower affinity. As a reminder, the stoichiometry N is a count of units in the complex or per binding partner. Usually Km stands for the concentration of substrate that gives half-maximal velocity.
